Test results from article PMC3285688, “Active Site Mutations Change the Cleavage Specificity of Neprilysin” (PLoS ONE, 2012).

How the values were obtained:
NEP [1] = assay: Degradation of peptide substrates by NEP: extent and cleavage sites (HPLC, mass spectrometry); settings: for Cleavage site (bond cleaved): NEP and mutants, 20 mM MES pH 6.5, 37°C
Experimental: Degradation of insulin B chain by wild-type NEP was analyzed by reverse-phase HPLC following the appearance of each product as a function of time, Figure 1 . Product peaks were collected and subsequently analyzed by mass spectrometry to determine their identities. […] Based on the order of appearance of each peak, it is likely that insulin B chain1–10, insulin B chain1–11, insulin B chain1–14 and its partner peak insulin B chain15–30, insulin B chain17–30, and insulin B chain24–30 are all products of primary cleavages. These products appear at the first time point when approximately 15% hydrolysis of insulin B chain had occurred (30 minutes). At 30% hydrolysis (90 min.), peaks corresponding to insulin B chain1–5 and insulin B chain17–24 are observed. Peaks for insulin B chain1–16 and insulin B chain15–23 become apparent at >30% insulin B chain hydrolysis. […] It is likely that these are transient products that are subsequently cleaved contributing to other product peaks (i.e. insulin B chain24–30).
To further study the effect of mutations on cleavage site specificity, time course assays were also performed for the hydrolysis of the physiological substrate Aß1–40. Like the analysis of insulin B chain, a time course assay was first done with NEP to identify cleavage products, Figure 3 and Table 6 . After 15% hydrolysis of Aß1–40 (150 min.) by NEP there were six discernable product peaks corresponding to Aß1–16, Aß1–17, Aß10–17, Aß20–28, Aß20–29, and Aß20–30. […]
Cleavage of physiological peptides was measured via reverse phase high performance liquid chromatography (HPLC) following incubation of the purified NEP or its mutants with 15 µM insulin B chain (Sigma Aldrich), 24 µM Aß1–40 (Anaspec), or 64 µM leu-ENK (Sigma) in 100 µL of 20 mM MES, pH 6.5, at 37°C. […] Peptides and hydrolysis products were detected at 214 nm and quantified by measuring peak areas. Peptides obtained from HPLC were analyzed on an Applied Biosystems 4800 MALDI TOF/TOF Proteomics Analyzer at the University of Kentucky Proteomics core. […]

[2] = tested on: NEP and each of the studied mutants; assay: Inhibition of Glut-Ala-Ala-Phe-MNA hydrolysis by NEP inhibitors; type: biochemical, human
Experimental: Reactions of 400 µl contained 100 µM Glut-Ala-Ala-Phe-MNA, 1 µg of aminopeptidase and 15 to 100 ng of NEP or mutant NEP depending on their activity in 20 mM MES buffer, pH 6.5. Activity was monitored with a Spectra Max Gemini XS plate reader using an excitation wavelength of 340 nm and an emission wavelength of 425 nm.

NEP [3] = settings: cited from earlier work
From the text: Two other studies have identified NEP cleavage sites within Aß1–40 [25], [26].

## Tyr-Gly-Gly-Phe-Leu [leu-ENK, leucine^5-enkephalin, leucine5-enkephalin (Tyr-Gly-Gly-Phe-Leu), physiological substrate]
NEP [1]
  Cleavage site (bond cleaved): Gly-Phe bond

## CC(C)C[C@H](NP(=O)(O)O[C@@H]1O[C@@H](C)[C@H](O)[C@@H](O)[C@H]1O)C(=O)N[C@@H](Cc1c[nH]c2ccccc12)C(=O)O [phosphoramidon]
[2]; inhibitor at 100 µM
  Inhibition of Glut-Ala-Ala-Phe-MNA hydrolysis: completely inhibited

## Aß1–40: amyloid beta peptide 1–40, physiological substrate (Anaspec)
NEP [1]
  Additional unreported cleavage sites detected in Aß1–40: E^11-V^12, K^16-L^17, and L^17-V^18
NEP [3]
  Cleavages of Aß1–40 detected by Leissring et al.: Cleavages at K^28-G^29 and G^29-A^30
  Cleavages of Aß1–40 detected in two other studies and the current study: G^9-Y^10, F^19-F^20, and A^30-I^31

## O=C(O)CCNC(=O)[C@H](Cc1ccc(-c2ccccc2)cc1)NCP(=O)(O)O [CGS 24592]
[2]; inhibitor at 10 nM
  Inhibition of Glut-Ala-Ala-Phe-MNA hydrolysis: completely inhibited

## glutaryl-Ala-Ala-Phe-4-methoxy-2-naphthylamide [Glut-Ala-Ala-Phe-MNA, fluorogenic peptide substrate]
NEP [1]
  Cleavage site (bond cleaved): Ala-Phe peptide bond
